Experimental data reported in US20070280982A1, “Antimicrobial compositions comprising hop acid alkali salts and uses thereof” (priority 2006, published 2007).

Assays:
B. subtilis = test: Shelf-life extension (bacteriostatic) assay, broth dilution, FIG. 1 and FIG. 3; type: cell-based, Bacillus subtilis; conditions: glycine alone versus combined with beta acid sodium salts
Procedure: Shelf-life extension assays were performed using the broth dilution method. Final inoculum concentration was […]. Microbial growth was assayed with a spectrophotometer by monitoring the absorption at 600 nm after 2 to 3 days. […] After incubation, colonies were counted.

Bacillus subtilis = conditions: cited from earlier work

**Q.** Which “Effect on bacterial growth, alone or in combination (FIG. 3)” value (B. subtilis) does the source give for `NCC(=O)O` [Glycine] here?
**A.** almost no effect on bacterial growth

**Q.** What about the “Known activity against Bacillus subtilis” value (Bacillus subtilis) of the same compound?
**A.** relatively weak activity
